# Measured values as given in patent publication US10046020B2, “Inflammation inhibiting compounds” (priority 2001, dated 2018).
# Square brackets hold non-standard residues; d marks the D form. Peptide text beside a SMILES is read from it.
# Tests used:
# [1] = test system: BNX mice transplanted with skin from psoriatic human donors; experiment: Psoriasis transplant model (human psoriatic skin on BNX mice); assay type: in vivo; conditions: FIG. 25B; KdPT i.p. 10 μg/d, three weeks
# Procedure: Immunodeficient mice (BNX mice) were transplanted with skin from psoriatic human donors. Animals with viable transplant were injected with PBMCs from the same donor, resulting in appearance of a psoriatic phenotype within the transplant. Animals were treated as follows:
# Group 1: Betamethasone, topically, 2× daily, Group 2: Vehicle, i.p. 100 μL/d, Group 3: KdPT i.p. 1 μg/d, Group 4: KdPT i.p. 10 μg/d, all treatments were kept up for three weeks.
# As shown in FIGS. 25A and 25B, immunodeficient mice (BNX mice) were transplanted with skin from psoriatic donors. Animals with viable transplant were injected with PBMCs from the same donor, resulting in appearance of a psoriatic phenotype within the transplant. Animals were treated as follows:
# Group 1: Vehicle, i.p. 100 μL/d, Group 2: Betamethasone, topically, 2× daily, Group 3: KdPT i.p. 10 μg/d, all treatments were kept up for three weeks.
# Balb/C mice = experiment: CHS sensitization and tolerance after i.v. injection of αMSH or peptides (DNFB); conditions: for inhibition of CHS response to DNFB exposure 7 days after sensitization (auricular swelling): i.v. 2 hours before sensitization, 5 μg αMSH or 1.5 μg peptide (KP: 50 μg) per mouse; for auricular swelling response after second sensitization and hapten exposure (tolerance to DNFB): injected i.v. before the first sensitization only
# Procedure: 7 to 10 week old female Balb/C mice were obtained from Charles River (Sulzfeld, Germany) and kept in compliance with government regulations.
# Before the injection, the particular compound was dissolved in PBS, 0.1% mouse serum, and stored on ice until injected i.v. into the tail vein of the mice.
# The mice were sensitized by spreading 75 μl of 0.5% DNFB in acetone/olive oil (4:1) on the shaven abdomen of naive mice. CHS was induced by applying 10 μl of 0.3% DNFB to the ears of the mice on both sides of one ear. CHS was determined by the degree of auricular swelling of the hapten-exposed ear compared with the other, control-treated ear and was measured using spring-loaded dividers 24 hours after hapten exposure. Mice whose ears were exposed to hapten without previous sensitization served as negative controls.
# [2] = test system: bone marrow dendritic cells (BMDC); experiment: CHS and tolerance after injection of BMDC treated in vitro with hapten and αMSH or KP; assay type: in vivo, mice; conditions: for immune response at second challenge after resensitization (tolerance): recipients of hapten- and peptide-treated BMDC; for CHS reaction at first challenge in recipients of hapten- and peptide-treated BMDC: αMSH 2×10^−11 M or KP 2×10^−6M in vitro, cells i.v.
# Procedure: Bone marrow dendritic cells (BMDC) were isolated from the femoral bones of mice and treated with IL-4 and GMCSF for 6 or 9 days. On day 6 or 9, the cells were treated with αMSH (2×10^−11 M) or the peptide KP (2×10^−6M) 3 hours and 2.5 hours before reinjection into naive mice with the same genetic background. 2 hours before reinjection, the cells were treated with hapten (1 mM DNBS, the water-soluble form of DNFB). Immediately before the reinjection, the cells were washed 2× with PBS. […] were injected i.v. into each animal. Control cells were treated either with DNBS alone or with αMSH alone or were left untreated. 5 days after injection, the animals were contacted with DNFB on the ear, and the ear thickness was measured the next day. 2 weeks later, the animals were resensitized with DNFB and again recontacted on the ear 5 days later. Finally, the auricular swelling was measured.
# human PBMC = experiment: IL-10 secretion by human PBMC (ELISA); assay type: cell-based; conditions: for IL-10 production: 24 hours, αMSH 10^−11 M, KPV and KPT 10^−8 to 10^−9M; for production of IL-10: 48 hours
# Procedure: Mononuclear cells (PBMC) were separated from human buffy coats by Ficoll Hypaque density gradient centrifugation. Cells (1×10^6 per ml), cultivated in RPMI 1640 with antibiotics and 10% FCS, were either not treated or stimulated with αMSH or the peptides KPV or KPT with or without IL-1β (10 U/ml). The supernatants of the PBMC cultures were collected after incubation for 24 or 48 hours and stored at −20° C. until used further. A commercially available ELISA was employed to detect IL-10.
# [3] = test system: sensitised recipient mice (Hapten: DNFB); experiment: Reinjection of CD4+ T-cells contacted with peptide-treated DC into DNFB-sensitised mice; assay type: in vivo; conditions: 1×10^6 cells
# CD4+-T-cells = experiment: CD4+ T-cells after contact with peptide-treated DC in vitro; assay type: cell-based
# [4] = molecular target: T1, melanocortin receptor on THP-1 cells (MC-1) (Homo sapiens, UniProt Q01726); experiment: Competition with biotin-labeled αMSH for binding sites on THP-1 cells (FACS); conditions: unlabeled competitor 10^−6 M; biotin-labeled αMSH 10^−10 M
# T1 construct: endogenous in cells; host or cells: THP-1 monocytic cell line (unstimulated, whole cells)
# T1 sequence (Q01726 whole entry): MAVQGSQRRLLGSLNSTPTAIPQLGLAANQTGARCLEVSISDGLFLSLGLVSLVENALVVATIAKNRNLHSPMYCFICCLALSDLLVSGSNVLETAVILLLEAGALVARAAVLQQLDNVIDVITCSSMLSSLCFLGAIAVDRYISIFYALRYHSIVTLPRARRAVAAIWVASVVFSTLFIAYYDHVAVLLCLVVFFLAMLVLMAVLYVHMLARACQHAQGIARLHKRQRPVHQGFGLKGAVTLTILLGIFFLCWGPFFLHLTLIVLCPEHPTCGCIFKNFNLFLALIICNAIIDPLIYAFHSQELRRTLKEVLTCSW
# Procedure: All the steps were carried out at 0 to 4° C. The monocytic cell line THP-1 was washed once in PBS, once one acidic glycine buffer (50 mM glycine, 100 mM sodium chloride, pH 3) and three times with RPMI. The cells 2.5×10^6 per ml) were then resuspended in 100 μl of RPMI/1% BSA and transferred into 96-well microtiter plates. […] After a last washing step, the cells were resuspended in PBS. […] Dead cells were excluded by adding propidium iodide shortly before the FACS analysis.
# [5] = test system: E selectin, ICAM-1, VCAM in HDMEC and HMEC-1; experiment: Expression of adhesion molecules in LPS- or TNFα-treated endothelial cells (RT-PCR, EIA, FACS); assay type: cell-based, human; conditions: 10^−6 to 10^−12 M
# Procedure: (§1) Human dermal microvascular endothelial cells (HDMEC) and the cell line HMEC-1 (human microvascular endothelial cell line 1) were treated either with TNFα or LPS in the presence or absence of one of the peptides. The cells were harvested for RNA isolation after 3 and after 6 hours after treatment or harvested either for adhesion molecule ETA or FACS analysis 3, 6, 16 or 24 hours after treatment. RNA underwent reverse transcription, and samples were subjected to a PCR for E selectin, ICAM-1, VCAM or for β-actin as housekeeping gene in order to carry out a semiquantitative determination. For the lymphocyte adhesion assay, the endothelial cells were seeded in dishes and incubated with ^51Cr-labeled lymphocytes. After a washing step, the amount of remaining lymphocytes bound to the EC layer was determined by measuring the radioactivity in the samples.
# HDMEC = experiment: Lymphocyte adhesion assay (51Cr-labeled lymphocytes on endothelial cell layers); assay type: cell-based, human; conditions: molt4 T lymphocytes, JY B lymphocytes
# Procedure: as §1
# T cells / DC = experiment: T cells contacted in vitro with antigen-loaded, αMSH or derivative-treated DC; assay type: in vivo, mouse; conditions: FIG. 15
# [6] = test system: mice with Imiquimod-induced psoriasis-like skin inflammation; experiment: Imiquimod-induced psoriasis-like disease in mice; assay type: in vivo
# LPS-treated mice = experiment: LPS-induced localized vasculitis in mice (E selectin, petechial lesions); assay type: in vivo; conditions: αMSH 25 μg at the time of the preparatory LPS injection
# Procedure: Mice were treated with LPS by s.c. injection on one ear. This preparatory injection induces a long-lasting rise in E selectin expression at the site of the LPS injection. 24 hours later, a second LPS dose was injected i.p. (challenge). This second LPS injection leads to rapid vessel necrolysis and to the formation of petechial lesions which are easily measurable because of their size and number. αMSH (25 μg) was administered at the time of the preparatory LPS injection.
# [7] = test system: PBMC from the blood of psoriasis patients; experiment: Regulatory T cells in PBMC from blood of psoriasis patients; assay type: cell-based, human
Molecule,weight loss as compared to treatment with betamethasone [1],inhibition of CHS response to DNFB exposure 7 days after sensitization (auricular swelling) (Balb/C mice),auricular swelling response after second sensitization and hapten exposure (tolerance to DNFB) (Balb/C mice),immune response at second challenge after resensitization (tolerance) [2],CHS reaction at first challenge in recipients of hapten- and peptide-treated BMDC [2],IL-10 production (human PBMC),production of IL-10 (human PBMC),effect of reinjected CD4+ T-cells on contact allergy [3],effect of co-cultured CD4+ T-cells on proliferation of CD4+CD25− responder T-cells (CD4+-T-cells),suppression of biotin-labeled αMSH binding [4],inhibition of LPS- or TNFα-induced expression of adhesion molecules (mRNA) [5],binding of T and B cells to LPS- or TNF-αMSH-treated EC layers (HDMEC),"induction of tolerance by T cells contacted in vitro with antigen-loaded, treated DC (T cells / DC)",number of regulatory CD4+CD25+Foxp3+ T cells ([6]; flow cytometry),expression of regulatory T cells markers ([6]; qRT-PCR),expression of Th17 markers ([6]; quantitative RT-PCR),number and size of petechial lesions after challenge injection of LPS (LPS-treated mice),expression of Foxp3 and IL-10 in regulatory T cells [7],expression of IFN-γ in regulatory T cells [7]
"C[C@@H](O)[C@H](NC(=O)[C@H]1CCCN1C(=O)[C@@H](N)CCCCN)C(=O)O [KdPT, (L)Lys-(D)Pro-(L)Thr] (H-Lys-[dP]-Thr-OH)",does not result in weight loss,–,–,–,–,–,–,–,–,–,–,–,–,–,–,–,–,–,–
Lys-Pro [KP],–,inhibits,inhibited the auricular swelling response very greatly,can induce tolerance,suppressed,–,–,–,–,–,–,–,–,–,–,–,–,–,–
Lys-Pro-Val [KPV],–,inhibits,weak effect,–,–,evidently induced IL-10 production,significantly increased,suppressive effect on contact allergy,suppressive effect on the proliferation,significant inhibition,–,–,–,–,–,–,–,–,–
α-melanocyte-stimulating hormone [αMSH],–,inhibits,inhibited the auricular swelling response very greatly,no immune response,suppressed,evidently induced IL-10 production,significantly increased,suppressive effect on contact allergy,suppressive effect on the proliferation,–,inhibited,significantly reduces,induction of tolerance,increased numbers,increased expression,Reduced Expression,significantly reduces,upregulated,downregulated substantially
